In PubChem BioAssay (NCI):
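In this assay, cells in 96-well plates receive the compound at five concentrations for 48 hours. Endpoints are linearly interpolated between the surrounding concentrations. At the TGI there is no net growth.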

Assays:
Assay in all cases: DTP human tumour cell line panel, 48 h
[1] = tested on: HOP-18 NSCLC
[2] = tested on: DLD-1 colon
[3] = tested on: XF 498 CNS
[4] = tested on: LXFL 529 NSCLC
[5] = tested on: DMS 273 small cell lung
[6] = tested on: RXF-631 renal
[7] = tested on: BT-549 breast
[8] = tested on: MDA-N
[9] = tested on: HS 578T breast

SMILES	TGI [1] [µM]	TGI [2] [µM]	TGI [3] [µM]	TGI [4] [µM]	TGI [5] [µM]	TGI [6] [µM]	TGI [7] [µM]	TGI [8] [µM]	TGI [9] [µM]
COc1ccc(/C=C/c2cc(OC)c(OC)c(OC)c2)cc1OC	> 100	> 100	> 100	> 100	> 100	> 100			
C=CCN=C1NC(=O)C(CC(=O)Nc2cccc(Cl)c2)S1 (configuration not stated)	> 100	> 100	> 100	> 100	> 100	> 100			
O=C(/C=C/c1ccc(-c2ccccc2)cc1)c1ccccc1	> 100	> 100	53.1	42.2		69			
COC(=O)CCCCCOS(=O)(=O)c1ccc(C)cc1	> 100	> 100	> 100	> 100	> 100	> 100			
COc1ccc(C2=NN(C(C)=O)c3nc4ccccc4nc3O2)cc1	88.9	88	49.2	> 100	> 100	> 100			
Cn1c(=O)nc2n(-c3ccc(F)c(F)c3)c3ccccc3nc-2c1=O	97.7	85.3	36.2	64.9	36.9	62.4			
Oc1ccc(O)c(-n2cccn2)c1		> 100	> 100	38.9	> 100	> 100			
Cc1ccc(NC(=O)CCc2nnc3s/c(=C\C=C\c4ccccc4)c(=O)n23)cc1	> 100	> 100	> 100	> 100	> 100	> 100	> 100	> 100	> 100
COc1ccc2c(c1)c1ccc3c(c1n2C)C(=O)C=CC3=O	24.7	20.9	32.1	30.2	> 56.3	> 45.5	10.3	24.1	28.1
CON1C(=O)C2(CCCCC2)C(=O)C12C=CC(C)CC2 (configuration not stated)			> 100	> 100	> 100	> 100			
CSc1nc2c(nc(N)n2C2OC(CO)C(O)C(O)C2O)c(=O)[nH]1 (configuration not stated)	> 100	> 100	> 100	> 100		> 100			
